Measured values taken from patent publication US10894058B2, “Method for producing solid dispersion containing hardly soluble polyphenol” (KAO CORPORATION, priority 2014, dated 2021).
≈ marks a conversion by molar mass, not a printed value. Each block holds one compound with its values, some of them ahead of it.

How the values were obtained:
[1] = Evaluation of solubility: concentration of hardly soluble polyphenol dissolved in ion-exchanged water, quantified by HPLC; assay type: physicochemical; conditions: sample added to ion-exchanged water at 1 g/L, shaken at 25° C. for 5 minutes, filtered 0.8 μm
Experimental: Hardly soluble polyphenols were each quantified by a gradient method using a high-performance liquid chromatograph manufactured by Hitachi, Ltd. with a column Cadenza CD-C18 (4.6 mmφ×150 mm, 3 μm) manufactured by Imtakt Corporation at a column temperature of 40° C.
A mobile phase, solution A, was 0.05 mol/L acetic acid aqueous solution, and the other mobile phase, solution B, was acetonitrile. Flow rate was 1.0 mL/min. Gradient conditions are shown below.
In addition, ellagic acid was quantified using the same device except that only gradient conditions were set as shown below.
The sample injection volume was 10 μL, and quantification was carried out on the basis of an absorbance at a wavelength of 254 nm.
A sample was added to ion-exchanged water at 1 g/L, and the resultant was shaken at 25° C. for 5 minutes. After that, the resultant was filtered with a cellulose acetate filter having a pore size of 0.8 μm, and the concentration of a hardly soluble polyphenol dissolved was measured by the above-mentioned quantification method.

[2] = cited from earlier work
[3] = X-ray diffraction analysis: crystallinity degree of ellagic acid; assay type: physicochemical; conditions: powder X-ray diffraction, FIG. 1 to FIG. 3
Experimental: The crystallinity degree of the hardly soluble polyphenol may be calculated by the following method. First, diffraction intensity values determined by an X-ray diffraction method are subjected to peak separation into a crystalline diffraction line and an amorphous halo through profile fitting without considering effects of incoherent scattering, a lattice defect, and the like. Next, the crystallinity degree of a hardly soluble polyphenol is calculated by the following calculation equation (2) from the resultant integrated intensities of the respective peaks: Crystallinity degree (%) of hardly soluble polyphenol=[ΣIα/(ΣIα+ΣIam)]×100 (2) where ΣIα represents a sum of integrated intensities of respective peaks in a crystalline diffraction line, and ΣIam represents a sum of integrated intensities of respective peaks in a diffraction line of an amorphous part.
An X-ray diffraction intensity was measured using “Mini Flex II” manufactured by Rigaku Corporation under the conditions of: an X-ray source of Cu/Kα-radiation; a tube voltage of 30 kV; a tube current of 15 mA; a measurement range of from 5° to 40° in terms of a diffraction angle; and an X-ray scan speed of 10°/min. A sample for measurement was prepared by compressing a pellet having an area of 400 mm^2 and a thickness of 0.5 mm.

Amount of ellagic acid dissolved [1]: 0.0053 g/L
crystallinity degree of ellagic acid [3]: 87%
SMILES: O=c1oc2c(O)c(O)cc3c(=O)oc4c(O)c(O)cc1c4c23 [Comparative Example 1, Ellagic acid]
solubility in water (25° C.) [2]: 5 µg/mL (≈ 16.5 µM)

SMILES: O.O.O=c1c(O)c(-c2ccc(O)c(O)c2)oc2cc(O)cc(O)c12 [Comparative Example 5, Quercetin dihydrate]
Amount of quercetin dissolved [1]: 0.005 g/L

Amount of curcumin dissolved [1]: 0.001 g/L
SMILES: COc1cc(/C=C/C(=O)CC(=O)/C=C/c2ccc(O)c(OC)c2)ccc1O [Comparative Example 7, Curcumin]

Amount of nobiletin dissolved [1]: 0.007 g/L
SMILES: COc1ccc(-c2cc(=O)c3c(OC)c(OC)c(OC)c(OC)c3o2)cc1OC [Comparative Example 8, Nobiletin]

SMILES: c1cc2c(cc1[C@H]1OC[C@H]3[C@@H]1CO[C@@H]3c1ccc3c(c1)OCO3)OCO2 [Comparative Example 9, Sesamin]
Amount of sesamin dissolved [1]: 0.0001 g/L

Amount of resveratrol dissolved [1]: 0.03 g/L
SMILES: Oc1ccc(C=Cc2cc(O)cc(O)c2)cc1 [Comparative Example 11, Resveratrol]

Amount of naringenin dissolved [1]: 0.008 g/L
SMILES: O=C1C[C@@H](c2ccc(O)cc2)Oc2cc(O)cc(O)c21 [Comparative Example 12, Naringenin]
